From patent publication US20040074621A1, “Method for reducing slime production and mixture making the same” (Yuen Foong Yu Paper MFG Co., Ltd., priority 2002, published 2004)

Assays:
[1] = system: culture isolated from the slime; assay: The effect of the antagonistic and the dispersing agent on the formation of the deposit; type: cell-based; settings: after 7 days
Protocol: Cultures which are isolated from the slime are cultivated in a NB cultivation liquid for 21-24 hours. Then, 1 mL culture liquids of the isolated cultures are centrifuged in 15000 rpm for 1 min and the supernatants thereof are removed. All the isolated cultures are re-suspended by adding 1 mL sterile water, and then each re-suspended culture is inoculated into a flask which already contains sterile white water 100 mL and 3 g LBKP pulp. Later, different dispersing agents are added into different flasks of each kind of culture to obtain different mixtures. The mixtures are cultivated in an incubate shaker at 40° C. 70 rpm. After being mixture cultivated for 3 hours, 3 mL antagonistic C5 (Streptomyces bikiniensis) which has been amounted to 10^7/mL after being cultivated for 24 hours is added thereinto to obtain another mixture. The mixture are cultivated in the incubate shaker again at 40° C., 70 rpm. After 7 days, the production of the deposit is recorded. The whole experiment is separated into six groups. […] There are four experimental group: 3: Only incubate the culture isolated from the slime without incubating the antagonistic C5; 4: Incubate both the culture isolated from the slime and the antagonistic C5; 5: Incubate the culture isolated from the slime and the dispersing agent; and 6: Incubate the culture isolated from the slime, the dispersing agent, and the antagonistic C5. The groups described above are double checked and all experiments are repeated at least once. Deposit % is calculated by the formula as follows: [formula]

[2] = system: culture isolated from the slime; assay: The track experiment of periodically adding the antagonistic; type: cell-based
Protocol: Cultures which are isolated from the slime are cultivated in a NB cultivation liquid for 21-24 hours. Then, 1 mL culture liquids of the isolated cultures are centrifuged in 15000 rpm for 1 min and the supernatants thereof are removed. All the isolated cultures are re-suspended by adding 1 mL sterile water, and then each re-suspended culture is inoculated into a flask which already contains sterile white water 100 mL and 3 g LBKP pulp. Later, different dispersing agents are added into different flasks of each kind of culture to obtain different mixtures. The mixtures are cultivated in an incubate shaker at 40° C. 70 rpm. After being mixture cultivated for 3 hours, 3 mL antagonistic C5 (Streptomyces bikiniensis) which has been amounted to 10^7/L after being cultivated for 24 hours is added thereinto to obtain another mixture. The mixture are cultivated in the incubate shaker again at 40° C. 70 rpm. […] Then, the final deposit amount after another 7 days (total 14 days) is also recorded. The whole experiment is separated into four groups. […] There are two experimental group: 3: Only incubate the culture isolated from the slime without incubating the antagonistic C5; and 4: Incubate both the culture isolated from the slime and the antagonistic C5. The groups described above are double checked and all experiments are repeated at least once. Deposit % is calculated by the formula as follows: [formula]

[3] = isolated culture in sterile white water 100 mL + 3 g LBKP pulp, 40° C. 70 rpm, culture isolated from slime alone = 100%
[4] = contrast group: only antagonistic C5, without the culture isolated from the slime

Row | Substance | Deposit (%) of the slime [1, 3] [%] | Deposit (%) of the slime [1, 4] [%] | Deposit % (Day 7) [2, 4] [%] | Deposit % (Day 14) [2, 4] [%] | Deposit % (Day 14) ([2]; culture isolated from slime + antagonistic C5, antagonistic C5 re-added at Day 7) [%] | Deposit % (Day 14) ([2]; culture isolated from slime + antagonistic C5 added once, not re-added, culture alone = 100%) [%] | Deposit % (Day 7) ([2]; culture isolated from slime + antagonistic C5 added once, culture alone = 100%) [%]
1 | Di-alkyl sulfosuccinate [dispersing agent S100] | 53 | – | – | – | – | – | –
2 | Streptomyces bikiniensis [Antagonistic C5] | 53.0 | 24.7 | 31.0 | 35.0 | 28 | 87 | 29
